Results published in US5393869A, “Parathyroid hormone derivatives” (Takeda Chemical Industries, Ltd., priority 1990, dated 1995).
Starred links: 1 amine or outer side, 2 acyl side, 3 side chain; linkers in the order of their positions; H or OH if unused. Non-standard residues stand in square brackets, D forms with d. Residues, ends and D or L forms follow the SMILES beside them. X1 = O=C([C@H](Cc1c(C2SCCS2)[nH]c2ccccc12)N[*:1])[*:2]

Target: T1, PTH receptor (Mus musculus, UniProt P41593)
T1 construct: a mouse cranial bone-derived osteoblast-like cell strain, MC3T3-EI cells, cultivated on a 96-well multiplate; endogenous in cells; host or cells: MC3T3-E1 mouse osteoblast-like cells
T1 sequence (P41593 27-591): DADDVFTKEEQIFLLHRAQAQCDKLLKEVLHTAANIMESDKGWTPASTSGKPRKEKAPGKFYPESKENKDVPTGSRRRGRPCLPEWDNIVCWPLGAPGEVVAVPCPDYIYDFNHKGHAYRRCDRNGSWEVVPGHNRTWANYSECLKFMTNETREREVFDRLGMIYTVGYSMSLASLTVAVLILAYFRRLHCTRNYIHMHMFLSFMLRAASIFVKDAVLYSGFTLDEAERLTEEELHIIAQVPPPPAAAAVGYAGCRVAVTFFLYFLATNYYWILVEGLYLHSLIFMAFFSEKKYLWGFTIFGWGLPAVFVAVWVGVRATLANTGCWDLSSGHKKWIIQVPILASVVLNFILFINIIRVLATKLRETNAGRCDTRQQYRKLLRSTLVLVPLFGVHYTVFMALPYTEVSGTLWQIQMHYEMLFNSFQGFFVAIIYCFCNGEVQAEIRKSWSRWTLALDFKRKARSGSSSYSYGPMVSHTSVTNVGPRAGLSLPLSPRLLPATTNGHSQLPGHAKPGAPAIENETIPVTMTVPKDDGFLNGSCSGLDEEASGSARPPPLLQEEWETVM
Assay: cAMP production by PTH (1-34) analogues in MC3T3-EI osteoblast-like cells
Type: cell-based
Settings: cAMP production, 0.01-100 nM analogue, room temperature 30 minutes, hPTH(1-34) = 1.00
Protocol: The biological activity of the peptide analogues was evaluated by a modified version of the method reported by Shigeno et al. in The Journal of Biological Chemistry 263, 18369-18377 (1988). A culture solution (Hank's solution, containing 20 mM N-2-hydroxyethylpiperazine-N'-2-ethanesulfonic acid (HEPES), 0.1% bovine serum albumin and 0.5 mM isobutylmethyl-xanthine) containing 0.01, 0.1, 1, 10 or 100 nM analogue was added in an amount of 100 μto a mouse cranial bone-derived osteoblast-like cell strain, MC3T3-EI cells, cultivated on a 96-well multiplate (Nunclon, Nunc), followed by reaction at room temperature for 30 minutes. After addition of 100 μof 0.2N hydrochloric acid, the mixture was immersed in boiling water for 2.5 minutes, and cyclic adenosine monophosphate (cAMP) produced by a PTH receptor was extracted from the cells. The total cAMP in the culture solution and the cells was assayed using a commercial radioimmunoassay kit (cyclic AMP [^125 I] kit "Du Pont-Daiichi", Daiichi Kagaku Yakuhin).

Biological Activity (Represented by Relative Activity to hPTH(1-34)) | Structure (SMILES)
1.7 | CC[C@H](C)[C@H](NC(=O)[C@H](CCC(=O)O)NC(=O)[C@H](CO)NC(=O)[C@@H](NC(=O)[C@@H](N)CO)C(C)C)C(=O)N[C@@H](CCC(N)=O)C(=O)N[C@@H](CC(C)C)C(=O)N[C@@H](CCSC)C(=O)N[C@@H](Cc1c[nH]cn1)C(=O)N[C@@H](CC(N)=O)C(=O)N[C@@H](CC(C)C)C(=O)NCC(=O)N[C@@H](CCCCN)C(=O)N[C@@H](Cc1c[nH]cn1)C(=O)N[C@@H](CC(C)C)C(=O)N[C@@H](CC(N)=O)C(=O)N[C@@H](CO)C(=O)N[C@@H](CCSC)C(=O)N[C@@H](CCCNC(=N)N)C(=O)N[C@@H](CCCNC(=N)N)C(=O)N[C@@H](CCCNC(=N)N)C(=O)N[C@@H](CCC(=O)O)C(=O)N[C@@H](Cc1c(C2SCCS2)[nH]c2ccccc12)C(=O)N[C@@H](CC(C)C)C(=O)N[C@@H](CCCNC(=N)N)C(=O)N[C@@H](CCCCN)C(=O)N[C@@H](CCCCN)C(=O)N[C@@H](CC(C)C)C(=O)N[C@@H](CCC(N)=O)C(=O)N[C@@H](CC(=O)O)C(=O)N[C@H](C(=O)N[C@@H](Cc1c[nH]cn1)C(=O)N[C@@H](CC(N)=O)C(=O)N[C@@H](Cc1ccccc1)C(N)=O)C(C)C [(Arg^19,21,2-(1,3-dithiolan-2-yl)-Trp^23)hPTH(1-34)NH2] (H-SVSEIQLMHNLGKHLNSMRRRE[X1]LRKKLQDVHNF-NH2)
0.5 | CC[C@H](C)[C@H](NC(=O)[C@H](CCC(=O)O)NC(=O)[C@H](CO)NC(=O)[C@@H](NC(=O)[C@@H](N)CO)C(C)C)C(=O)N[C@@H](CCC(N)=O)C(=O)N[C@@H](CC(C)C)C(=O)N[C@@H](CC(C)C)C(=O)N[C@@H](Cc1c[nH]cn1)C(=O)N[C@@H](CC(N)=O)C(=O)N[C@@H](CC(C)C)C(=O)NCC(=O)N[C@@H](CCCCN)C(=O)N[C@@H](Cc1c[nH]cn1)C(=O)N[C@@H](CC(C)C)C(=O)N[C@@H](CC(N)=O)C(=O)N[C@@H](CO)C(=O)N[C@@H](CCSC)C(=O)N[C@@H](CCC(=O)O)C(=O)N[C@@H](CCCNC(=N)N)C(=O)N[C@H](C(=O)N[C@@H](CCC(=O)O)C(=O)N[C@@H](Cc1c[nH]c2ccccc12)C(=O)N[C@@H](CC(C)C)C(=O)N[C@@H](CCCNC(=N)N)C(=O)N[C@@H](CCCCN)C(=O)N[C@@H](CCCCN)C(=O)N[C@@H](CC(C)C)C(=O)N[C@@H](CCC(N)=O)C(=O)N[C@@H](CC(=O)O)C(=O)N[C@H](C(=O)N[C@@H](Cc1c[nH]cn1)C(=O)N[C@@H](CC(N)=O)C(=O)N[C@@H](Cc1ccccc1)C(N)=O)C(C)C)C(C)C [[Leu^8] hPTH (1-34)NH2, (Leu^8)hPTH(1-34)NH2]
2.5 | CC[C@H](C)[C@H](NC(=O)[C@H](CCC(=O)O)NC(=O)[C@H](CO)NC(=O)[C@@H](NC(=O)[C@@H](N)CO)C(C)C)C(=O)N[C@@H](CCC(N)=O)C(=O)N[C@@H](CC(C)C)C(=O)N[C@@H](CCSC)C(=O)N[C@@H](Cc1c[nH]cn1)C(=O)N[C@@H](CC(N)=O)C(=O)N[C@@H](CC(C)C)C(=O)NCC(=O)N[C@@H](CCCCN)C(=O)N[C@@H](Cc1c[nH]cn1)C(=O)N[C@@H](CC(C)C)C(=O)N[C@@H](CC(N)=O)C(=O)N[C@@H](CO)C(=O)N[C@@H](CCSC)C(=O)N[C@@H](CCC(=O)O)C(=O)N[C@@H](CCCNC(=N)N)C(=O)N[C@H](C(=O)N[C@@H](CCC(=O)O)C(=O)N[C@@H](Cc1c[nH]c2ccccc12)C(=O)N[C@@H](CC(C)C)C(=O)N[C@@H](CCCNC(=N)N)C(=O)N[C@@H](CCCCN)C(=O)N[C@@H](CCC(N)=O)C(=O)N[C@@H](CC(C)C)C(=O)N[C@@H](CCC(N)=O)C(=O)N[C@@H](CC(=O)O)C(=O)N[C@H](C(=O)N[C@@H](Cc1c[nH]cn1)C(=O)N[C@@H](CC(N)=O)C(=O)N[C@@H](Cc1ccccc1)C(=O)O)C(C)C)C(C)C [[Gln^27] hPTH (1-34), (Gln^27)hPTH(1-34)]
0.9 | CC[C@H](C)[C@H](NC(=O)[C@H](CCC(=O)O)NC(=O)[C@H](CO)NC(=O)[C@@H](NC(=O)[C@@H](N)CO)C(C)C)C(=O)N[C@@H](CCC(N)=O)C(=O)N[C@@H](CC(C)C)C(=O)N[C@@H](CCSC)C(=O)N[C@@H](Cc1c[nH]cn1)C(=O)N[C@@H](CC(N)=O)C(=O)N[C@@H](CC(C)C)C(=O)N[C@H](Cc1ccc2ccccc2c1)C(=O)N[C@@H](CCCCN)C(=O)N[C@@H](Cc1c[nH]cn1)C(=O)N[C@@H](CC(C)C)C(=O)N[C@@H](CC(N)=O)C(=O)N[C@@H](CO)C(=O)N[C@@H](CCSC)C(=O)N[C@@H](CCC(=O)O)C(=O)N[C@@H](CCCNC(=N)N)C(=O)N[C@H](C(=O)N[C@@H](CCC(=O)O)C(=O)N[C@@H](Cc1c[nH]c2ccccc12)C(=O)N[C@@H](CC(C)C)C(=O)N[C@@H](CCCNC(=N)N)C(=O)N[C@@H](CCCCN)C(=O)N[C@@H](CCCCN)C(=O)N[C@@H](CC(C)C)C(=O)N[C@@H](CCC(N)=O)C(=O)N[C@@H](CC(=O)O)C(=O)N[C@H](C(=O)N[C@@H](Cc1c[nH]cn1)C(=O)N[C@@H](CC(N)=O)C(=O)N[C@@H](Cc1ccccc1)C(N)=O)C(C)C)C(C)C [(3-(2-naphthyl)-D-Ala^12)hPTH(1-34)NH2]
1.2 | CC[C@H](C)[C@H](NC(=O)[C@H](CCC(=O)O)NC(=O)[C@H](CO)NC(=O)[C@@H](NC(=O)[C@@H](N)CO)C(C)C)C(=O)N[C@@H](CCC(N)=O)C(=O)N[C@@H](CC(C)C)C(=O)N[C@@H](CCSC)C(=O)N[C@@H](Cc1c[nH]cn1)C(=O)N[C@@H](CC(N)=O)C(=O)N[C@@H](CC(C)C)C(=O)NCC(=O)N[C@@H](CCCCN)C(=O)N[C@@H](Cc1c[nH]cn1)C(=O)N[C@@H](CC(C)C)C(=O)N[C@@H](CC(N)=O)C(=O)N[C@@H](CO)C(=O)N[C@@H](CCSC)C(=O)N[C@@H](CCC(=O)O)C(=O)N[C@@H](CCCNC(=N)N)C(=O)N[C@H](C(=O)N[C@@H](CCC(=O)O)C(=O)N[C@@H](Cc1c[nH]c2ccccc12)C(=O)N[C@@H](CC(C)C)C(=O)N[C@@H](CCCNC(=N)N)C(=O)N[C@@H](CCCCN)C(=O)N[C@@H](CC(C)C)C(=O)N[C@@H](CC(C)C)C(=O)N[C@@H](CCC(N)=O)C(=O)N[C@@H](CC(=O)O)C(=O)N[C@H](C(=O)N[C@@H](Cc1c[nH]cn1)C(=O)N[C@@H](CC(N)=O)C(=O)N[C@@H](Cc1ccccc1)C(=O)O)C(C)C)C(C)C [[Leu^27] hPTH (1-34), (Leu^27)hPTH(1-34)]
0.5 | CC[C@H](C)[C@H](NC(=O)[C@H](CCC(=O)O)NC(=O)[C@H](CO)NC(=O)[C@@H](NC(=O)[C@@H](N)CO)C(C)C)C(=O)N[C@@H](CCC(N)=O)C(=O)N[C@@H](CC(C)C)C(=O)N[C@@H](CCSC)C(=O)N[C@@H](Cc1c[nH]cn1)C(=O)N[C@@H](CC(N)=O)C(=O)N[C@@H](CC(C)C)C(=O)N[C@H](CC(C)C)C(=O)N[C@@H](CCCCN)C(=O)N[C@@H](Cc1c[nH]cn1)C(=O)N[C@@H](CC(C)C)C(=O)N[C@@H](CC(N)=O)C(=O)N[C@@H](CO)C(=O)N[C@@H](CCSC)C(=O)N[C@@H](CCC(=O)O)C(=O)N[C@@H](CCCNC(=N)N)C(=O)N[C@H](C(=O)N[C@@H](CCC(=O)O)C(=O)N[C@@H](Cc1c[nH]c2ccccc12)C(=O)N[C@@H](CC(C)C)C(=O)N[C@@H](CCCNC(=N)N)C(=O)N[C@@H](CCCCN)C(=O)N[C@@H](CCCCN)C(=O)N[C@@H](CC(C)C)C(=O)N[C@@H](CCC(N)=O)C(=O)N[C@@H](CC(=O)O)C(=O)N[C@H](C(=O)N[C@@H](Cc1c[nH]cn1)C(=O)N[C@@H](CC(N)=O)C(=O)N[C@@H](Cc1ccccc1)C(N)=O)C(C)C)C(C)C [[D-Leu^12] hPTH (1-34)NH2, (D-Leu^12)hPTH(1-34)NH2]
1.7 | CC[C@H](C)[C@H](NC(=O)[C@H](CCC(=O)O)NC(=O)[C@H](CO)NC(=O)[C@@H](NC(=O)C(C)(C)N)C(C)C)C(=O)N[C@@H](CCC(N)=O)C(=O)N[C@@H](CC(C)C)C(=O)N[C@@H](CCSC)C(=O)N[C@@H](Cc1c[nH]cn1)C(=O)N[C@@H](CC(N)=O)C(=O)N[C@@H](CC(C)C)C(=O)NCC(=O)N[C@@H](CCCCN)C(=O)N[C@@H](Cc1c[nH]cn1)C(=O)N[C@@H](CC(C)C)C(=O)N[C@@H](CC(N)=O)C(=O)N[C@@H](CO)C(=O)N[C@@H](CCSC)C(=O)N[C@@H](CCC(=O)O)C(=O)N[C@@H](CCCNC(=N)N)C(=O)N[C@H](C(=O)N[C@@H](CCC(=O)O)C(=O)N[C@@H](Cc1c[nH]c2ccccc12)C(=O)N[C@@H](CC(C)C)C(=O)N[C@@H](CCCNC(=N)N)C(=O)N[C@@H](CCCCN)C(=O)N[C@@H](CCCCN)C(=O)N[C@@H](CC(C)C)C(=O)N[C@@H](CCC(N)=O)C(=O)N[C@@H](CC(=O)O)C(=O)N[C@H](C(=O)N[C@@H](Cc1c[nH]cn1)C(=O)N[C@@H](CC(N)=O)C(=O)N[C@@H](Cc1ccccc1)C(=O)O)C(C)C)C(C)C [[Aib^1] hPTH (1-34), (Aib^1)hPTH(1-34)]
